33 compounds from patent US20240208942A1, “METAP-2 INHIBITORS, PHARMACEUTICAL COMPOSITIONS AND THERAPEUTIC METHODS THEREOF” (CANWELL BIOTECH LIMITED, priority 2021, published 2024) can be followed below.

Some results are limits rather than exact numbers.

Usually IC50 stands for the concentration needed to halve the response being measured.

The target of this assay is T1, recombinant human MetAP-2 (Homo sapiens, UniProt P50579).
T1 construct: His tag (N); TEV cleavage site (N); made in house
T1 sequence (P50579 whole entry): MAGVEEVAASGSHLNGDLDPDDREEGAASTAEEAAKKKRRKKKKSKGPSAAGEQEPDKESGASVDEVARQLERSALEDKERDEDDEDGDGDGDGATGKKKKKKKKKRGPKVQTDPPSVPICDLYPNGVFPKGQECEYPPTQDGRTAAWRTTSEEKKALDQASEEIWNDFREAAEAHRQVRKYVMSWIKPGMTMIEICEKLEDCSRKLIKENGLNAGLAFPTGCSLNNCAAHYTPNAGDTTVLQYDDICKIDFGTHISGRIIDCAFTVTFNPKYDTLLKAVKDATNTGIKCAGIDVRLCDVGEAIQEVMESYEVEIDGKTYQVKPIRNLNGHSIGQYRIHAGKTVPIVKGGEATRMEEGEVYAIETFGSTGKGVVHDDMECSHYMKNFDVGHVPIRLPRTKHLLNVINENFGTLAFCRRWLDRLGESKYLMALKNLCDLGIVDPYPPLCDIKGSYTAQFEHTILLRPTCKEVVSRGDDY
Kind of assay: Enzymatic activity assay of Methionine aminopeptidase 2 (enzyme coupled assay, Met-Ala-Ser substrate). It counts as biochemical. Particulars: recombinant human MetAP-2 (His-Tev-MetAP-2), absorbance at 450 nm, kinetic mode, read-out: MeAP2 IC50. Here is the method: The MetAP-2 activity was determined by an enzyme coupled assay using the tripeptide Met-Ala-Ser (MAS) as substrate and recombinant human MetAP-2 (His-Tev-MetAP-2, prepared in-house). The released methionine is converted by L-amino acid oxidase (AAO) to Met ox and hydrogen peroxide is released. In a second step horse radish peroxidase catalyses the oxidation of the leuko dye dianisidine to dianisidine ox with hydrogen peroxide as co-substrate. The produced dianisidine ox was detected photometrically as increase in absorbance at 450 nm. MetAP-2 activity was determined in a kinetic measurement mode. The release of one molecule methionine corresponds to the production of one molecule dianisidine ox. The MetAP-2 enzymatic activity is directly corresponding to the increase in absorbance per time.
As for `C[Si](C)(C)c1ccc(N2CC[C@](O)(C(=O)NCc3cc(F)cc(F)c3)C2=O)cc1` [Compound 11, (S)-N-(3,5-difluorobenzyl)-3-hydroxy-2-oxo-1-(4-(trimethylsilyl)phenyl)pyrrolidine-3-carbo xamide], the IC50 was less than 1000 nM.

For `O=C(NCc1cc(F)cc(Cl)c1)[C@]1(O)CCN(c2ccc(P(=O)(C3CCC3)C3CCC3)cc2)C1=O` [Compound 5a], the IC50 fell in the range of 1000 to 10000 nM.

As for `O=C(NCc1cc(F)cc(Cl)c1)[C@@]1(O)CCN(c2ccc3c(c2)C2(CCC2)S(=O)(=O)N3)C1=O` [Compound 19, (S)-N-(3-chloro-5-fluorobenzyl)-1-(2,2-dioxido-1H-spiro[benzo[c]isothiazole-3,1′-cyclobutan]-5-yl)-3-hydroxy-2-oxopyrrolidine-3-carboxamide], the IC50 is less than 1000 nM.

Take `O=C1Nc2ccc(N3CC[C@](O)(C(=O)NCc4cc(F)cc(Cl)c4)C3=O)cc2C12CC2` [Compound 13, (S)-N-(3-chloro-5-fluorobenzyl)-3-hydroxy-2-oxo-1-(2′-oxospiro[cyclopropane-1,3′-indoline]-5′-yl)pyrrolidine-3-carboxamide]: the IC50 was less than 1000 nM.

In the case of `CP(C)(=O)c1ccc(N2CC[C@](O)(C(=O)NCc3cc(F)cc(F)c3)C2=O)cn1` [Compound 6, (S)-N-(3,5-difluorobenzyl)-1-(6-(dimethylphosphoryl)pyridin-3-yl)-3-hydroxy-2-oxopyrrolidine-3-carboxamide], the IC50 is less than 1000 nM.

For `CP(C)(=O)c1ccc(N2CC[C@@](O)(C(=O)NCc3cc(F)cc(F)c3)C2=O)cc1` [Compound 1a, (R)-N-(3,5-difluorobenzyl)-1-(4-(dimethylphosphoryl)phenyl)-3-hydroxy-2-oxopyrrolidine-3-car boxamide], the IC50 was 1000 to 10000 nM.

For `O=C(NCc1cc(F)cc(Cl)c1)[C@@]1(O)CCN(c2ccc(P(=O)(C3CCC3)C3CCC3)cc2)C1=O` [Compound 5, (S)-N-(3-chloro-5-fluorobenzyl)-1-(4-(dicyclobutylphosphoryl)phenyl)-3-hydroxy-2-oxopyrr olidine-3-carboxamide], the IC50 was less than 1000 nM.

Regarding `CP(C)(=O)c1ccc(N2CC[C@@](O)(C(=O)NCc3cc(F)cc(F)c3)C2=O)cn1` [Compound 6a], the IC50 is greater than 10000 nM.

With `CC(C)P(=O)(c1ccc(N2CC[C@@](O)(C(=O)NCc3cc(F)cc(F)c3)C2=O)cc1)C(C)C` [Compound 4a], the IC50 was less than 1000 nM.

With `CP(C)(=O)c1ccc(N2CC[C@](O)(C(=O)NCc3cc(F)cc(Cl)c3)C2=O)cc1` [Compound 9, (S)-N-(3-chloro-5-fluorobenzyl)-1-(4-(dimethylphosphoryl)phenyl)-3-hydroxy-2-oxopyrrolidine-3-carboxamide], the IC50 is less than 1000 nM.

Turning to `O=C1Nc2ccc(N3CC[C@](O)(C(=O)NCc4cc(F)cc(F)c4)C3=O)cc2C12CCCC2` [Compound 15, (S)-N-(3,5-difluorobenzyl)-3-hydroxy-2-oxo-1-(2′-oxospiro[cyclopentane-1,3′-indoline]-5′-yl)pyrrolidine-3-carboxamide], the half-inhibitory concentration (IC50) is less than 1000 nM.

As to `CP(C)(=O)c1ccc(N2CC[C@](O)(C(=O)NCc3cc(F)cc(F)c3)C2=O)cc1` [Compound 1, (S)-N-(3,5-difluorobenzyl)-1-(4-(dimethylphosphoryl)phenyl)-3-hydroxy-2-oxopyrrolidine-3-arboxamide], the IC50 is less than 1000 nM.

On to `O=C(NCc1cc(F)cc(F)c1)[C@]1(O)CCN(c2ccc(P(=O)(C3CC3)C3CC3)cc2)C1=O` [Compound 10a], for which the IC50 was in the range of 1000 to 10000 nM.

For `CC(C)P(=O)(c1ccc(N2CC[C@](O)(C(=O)NCc3cc(F)cc(F)c3)C2=O)cc1)C(C)C` [Compound 4, (S)-N-(3,5-difluorobenzyl)-1-(4-(diisopropylphosphoryl)phenyl)-3-hydroxy-2-oxopyrrolidine-3-carboxamide], the IC50 is less than 1000 nM.

In the case of `O=C(NCc1cc(F)cc(Cl)c1)[C@@]1(O)CCN(c2ccc(P(=O)(C3CC3)C3CC3)cc2)C1=O` [Compound 8, (S)-N-(3-chloro-5-fluorobenzyl)-1-(4-(dicyclopropylphosphoryl)phenyl)-3-hydroxy-2-oxopy rrolidine-3-carboxamide], the IC50 is less than 1000 nM.

In the case of `O=C(NCc1cc(F)cc(F)c1)[C@@]1(O)CCN(c2ccc(P(=O)(C3CC3)C3CC3)cc2)C1=O` [Compound 10, (S)-1-(4-(dicyclopropylphosphoryl)phenyl)-N-(3,5-difluorobenzyl)-3-hydroxy-2-oxopyrrolidine-3-carboxamide], the IC50 was less than 1000 nM.

For `O=C(NCc1cc(F)cc(Cl)c1)C1(O)CCN(c2ccc(P(=O)(C3CCC3)C3CCC3)cc2)C1=O` (racemic) [Compound 5-7], the IC50 is less than 1000 nM.

Consider `CC(C)P(=O)(c1ccc(N2CC[C@@](O)(C(=O)NCc3cc(F)cc(Cl)c3)C2=O)cc1)C(C)C` [Compound 7a], for which the IC50 is greater than 10000 nM.

As for `O=C1Nc2ccc(N3CC[C@](O)(C(=O)NCc4cc(F)cc(Cl)c4)C3=O)cc2C12CCC2` [Compound 14, (S)-N-(3-chloro-5-fluorobenzyl)-3-hydroxy-2-oxo-1-(2′-oxospiro[cyclobutane-1,3′-indoline]-5′-yl)pyrrolidine-3-carboxamide], the IC50 was less than 1000 nM.

On to `O=C(NCc1cc(F)cc(F)c1)[C@@]1(O)CCN(c2ccc3c(c2)C2(CC2)CN3)C1=O` [Compound 12, (S)-N-(3,5-difluorobenzyl)-3-hydroxy-2-oxo-1-(spiro[cyclopropane-1,3′-indoline]-5′-yl)pyrr olidine-3-carboxamide], for which the IC50 is less than 1000 nM.

Regarding `O=C1Nc2ncc(N3CC[C@](O)(C(=O)NCc4cc(F)cc(Cl)c4)C3=O)cc2C12CC2` [Compound 17, (S)-N-(3-chloro-5-fluorobenzyl)-3-hydroxy-2-oxo-1-(2′-oxo-1′,2′-dihydrospiro[cyclopropane-1,3′-pyrrolo[2,3-b]pyridine]-5′-yl)pyrrolidine-3-carboxamide], the IC50 is less than 1000 nM.

With `O=C(NCc1cc(F)cc(Cl)c1)[C@]1(O)CCN(c2ccc(P(=O)(C3CC3)C3CC3)cc2)C1=O` [Compound 8a], the IC50 fell in the range of 1000 to 10000 nM.

As for `CC(C)P(=O)(c1ccc(N2CC[C@](O)(C(=O)NCc3cc(F)cc(Cl)c3)C2=O)cc1)C(C)C` [Compound 7, (S)-N-(3-chloro-5-fluorobenzyl)-1-(4-(diisopropylphosphoryl)phenyl)-3-hydroxy-2-oxopyrr olidine-3-carboxamide], the IC50 is less than 1000 nM.

Take `O=C(NCc1cc(F)cc(Cl)c1)[C@@]1(O)CCN(c2ccc3c(c2)C2(CC2)S(=O)(=O)N3)C1=O` [Compound 20, (S)-N-(3-chloro-5-fluorobenzyl)-1-(2,2-dioxido-1H-spiro[benzo[c]isothiazole-3,1′-cyclopropan]-5-yl)-3-hydroxy-2-oxopyrrolidine-3-carboxamide]: the IC50 was less than 1000 nM.

Turning to `CP(C)(=O)c1ccc(N2CC[C@@](O)(C(=O)NCc3cc(F)cc(Cl)c3)C2=O)cc1` [Compound 9a], the IC50 was less than 1000 nM.

Regarding `CCP(=O)(CC)c1ccc(N2CC[C@](O)(C(=O)NCc3cc(F)cc(F)c3)C2=O)cc1` [Compound 3, (S)-1-(4-(diethylphosphoryl)phenyl)-N-(3,5-difluorobenzyl)-3-hydroxy-2-oxopyrrolidine-3-c arboxamide], the IC50 was less than 1000 nM.

In the case of `CCP(=O)(CC)c1ccc(N2CC[C@@](O)(C(=O)NCc3cc(F)cc(F)c3)C2=O)cc1` [Compound 3a], the IC50 lay within 1000 to 10000 nM.

As to `O=C1Nc2ccc(N3CC[C@@](O)(C(=O)NCc4cc(F)cc(Cl)c4)C3=O)cc2C12CC2` [Compound 13a], the IC50 fell in the range of 1000 to 10000 nM.

In the case of `CP(C)(=O)c1cccc(N2CC[C@@](O)(C(=O)NCc3cc(F)cc(F)c3)C2=O)c1` [Compound 2a], the IC50 lay in the range of 1000 to 10000 nM.

As for `O=C(NCc1cc(F)cc(F)c1)[C@@]1(O)CCN(c2ccc3c(c2)C2(CCC2)S(=O)(=O)N3)C1=O` [Compound 18, (S)-N-(3,5-difluorobenzyl)-1-(2,2-dioxido-1H-spiro[benzo[c]isothiazole-3,1′-cyclobutan]-5-y 1)-3-hydroxy-2-oxopyrrolidine-3-carboxamide], the IC50 is less than 1000 nM.

`NC(=O)c1cc2cc(N3CCC(O)(C(=O)NCc4cc(F)cc(F)c4)C3=O)sc2[nH]1` (stereo not drawn) [Compound 23, 2-(3-(3,5-difluorobenzylcarbamoyl)-3-hydroxy-2-oxopyrrolidin-1-yl)-6H-thieno[2,3-b]pyrro 1e-5-carboxamide]: the IC50 was less than 1000 nM.

Consider `O=C1Nc2ccc(N3CC[C@](O)(C(=O)NCc4cc(F)cc(F)c4)C3=O)cc2C12CC2` [Compound 16, (S)-N-(3,5-difluorobenzyl)-3-hydroxy-2-oxo-1-(2′-oxospiro[cyclopropane-1,3′-indoline]-5′-yl)pyrrolidine-3-carboxamide], for which the IC50 is less than 1000 nM.

Turning to `CP(C)(=O)c1cccc(N2CC[C@](O)(C(=O)NCc3cc(F)cc(F)c3)C2=O)c1` [Compound 2, (S)-N-(3,5-difluorobenzyl)-1-(3-(dimethylphosphoryl)phenyl)-3-hydroxy-2-oxopyrrolidine-3-carboxamide], the IC50 was less than 1000 nM.
